Measured values taken from US20120321896A1, “RASAGILINE MESYLATE HAVING LARGE PARTICLE SIZE AND A PROCESS FOR PREPARATION THEREOF” (priority 2010, published 2012).
Where a name gives a salt, the structure may show the parent alone.

Details: volume distribution; average of three measurements; recrystallised from isopropyl alcohol, gradual cooling in around 15 hours without stirring, no milling
Text: Measurement and characterization of particle size distributions is known in the art. It is possible to compare samples of particulate rasagiline mesylate on the basis of individual points on a cumulative particle size distribution curve. The measurements are represented as d(0.X)-Y (where X and Y are Arabic numerals), each “d” describing an individual point on a cumulative PSD curve. The number “X” represents the percentage (number, volume, or weight) of particles in the population having a nominal size up to and including “Y”. Thus, D90 or d(0.9) of greater than 255 μm is a characteristic of a PSD in which 90% (number, volume, or weight) of the particles in a population have a nominal size of about 255 μm or more (at least some particles having a nominal dimension of 255 μm) and so forth. When PSD is determined by the well-know laser-diffraction method described herein, the D90 measurement depicts a volume average.
Particle Size Distribution (PSD) is determined by laser diffraction in Malvern master Sizer 2000 equipment or its equivalent:
Spread sufficient powder in the dry powder holder of sampler holding unit and close it by the sliding cover. Operate the instrument for particle size analysis.
Report the average of three measurements.

Particle size data (D90) [μm] | SMILES
292.2 | C#CCN[C@@H]1CCc2ccccc21 [Example-1, Rasagiline mesylate]
337.1 | C#CCN[C@@H]1CCc2ccccc21 [Example-2, Rasagiline mesylate]
